In the supplement of paper PMC8960247:
Counter-ions that a name gives are not always drawn. ± gives the standard error.

What follows are compounds tested on 621-102 (TSC2-deficient) (assay: relative viability vs DMSO; higher = less cytotoxic). Conditions: 1 µM; serum: 10% FBS; 72 h.
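Further: immortalized renal angiomyolipoma cells stably carrying empty vector or TSC2, dosed in 384-well plates in DMEM, viability normalized to vehicle-treated wells within each plate.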

| SMILES | relative viability [%] |
| --- | --- |
| NC1(c2ccc(-c3nc4ccn5c(=O)[nH]nc5c4cc3-c3ccccc3)cc2)CCC1 [MK-2206] | 95.7 ± 1.4 |
| S=C(NCc1ccc2c(c1)OCO2)N1CCN(c2ncnc3c2oc2ccccc23)CC1 [MP-470] | 118 ± 4.8 |
| Nc1ccccc1NC(=O)c1ccc(CNC(=O)OCc2cccnc2)cc1 [MS-275] | 83 ± 2.6 |
| COC(=O)C1=C(C)NC(C)=C(C(=O)OCCN2CCN(C(c3ccccc3)c3ccccc3)CC2)C1c1cccc([N+](=O)[O-])c1 (configuration not stated) [Manidipine HCl (CV-4093)] | 107 ± 4 |
| COC(=O)C1=C(C)NC(C)=C(C(=O)OCCN2CCN(C(c3ccccc3)c3ccccc3)CC2)C1c1cccc([N+](=O)[O-])c1 (configuration not stated) [Manidipine] | 93.8 ± 1.4 |
| CNCCCC12CCC(c3ccccc31)c1ccccc12 [Maprotiline HCl] | 107.1 ± 0.36 |
| Cc1nnc(C(C)C)n1[C@H]1C[C@H]2CC[C@@H](C1)N2CC[C@H](NC(=O)C1CCC(F)(F)CC1)c1ccccc1 [Maraviroc (Selzentry)] | 108.3 ± 0.76 |
| Cc1ccc(NC(=O)c2ccc(CN3CCN(C)CC3)cc2)cc1Nc1nc(-c2cccnc2)cs1 [Masitinib (AB1010)] | 107 ± 2.1 |
| Cc1[nH]c(=O)c(C#N)cc1-c1ccncc1 [Milrinone (Primacor)] | 107 ± 3.9 |
| O=C1c2c(O)ccc(O)c2C(=O)c2c(NCCNCCO)ccc(NCCNCCO)c21 [Mitoxantrone] | 5.07 ± 0.86 |
| NC(=O)c1ncn([C@@H]2O[C@H](CO)[C@@H](O)[C@H]2O)c1O [Mizoribine] | 99.9 ± 2.9 |
| N=C(N)NC(=N)N1CCOCC1 [Moroxydine] | 109.9 ± 0.84 |
| CC1(C)CNc2cc(NC(=O)c3cccnc3NCc3ccncc3)ccc21 [Motesanib DiPhosphate] | 104 ± 2.7 |
| FC(F)(F)c1ccc(/C=C/c2nc(COc3ccc(CCCCn4ccnn4)cc3)co2)cc1 [Mubritinib (TAK 165)] | 107 ± 1.2 |
| CC(C)(C)c1[nH]cnc1/C=c1\[nH]c(=O)/c(=C/c2ccccc2)[nH]c1=O [NPI-2358] | 36.5 ± 2 |
| CC(C)(Cc1ccc2ccccc2c1)NC[C@@H](O)COc1cccc(Cl)c1C#N [NPS-2143] | 79.52 ± 0.42 |
| CCNC(=O)c1noc(-c2cc(C(C)C)c(O)cc2O)c1-c1ccc(CN2CCOCC2)cc1 [NVP-AUY922] | 23 ± 0.25 |
| CCNC(=O)c1cc2c(-c3cc(OCCN4CCCC4)c(Cl)cc3Cl)nc(N)nc2s1 [NVP-BEP800] | 56.1 ± 4 |
| Fc1cc(-c2cccc3ncc(-c4cnn(C5CCNCC5)c4)nc23)cc(F)c1CN1CCOCC1 [NVP-BSK805 dihydrochloride] | 89.2 ± 9.6 |

Same assay, conditions: 10 µM; serum: 10% FBS; 72 h

| SMILES | relative viability [%] |
| --- | --- |
| CCC(C)n1ncn(-c2ccc(N3CCN(c4ccc(OCC5COC(Cn6cncn6)(c6ccc(Cl)cc6Cl)O5)cc4)CC3)cc2)c1=O (configuration not stated) [Itraconazole (Sporanox)] | 7.53 ± 0.32 |
| CCCNC(=O)Nc1ccc(Oc2ncnc3cc(OC)c(OC)cc23)cc1Cl [KRN 633] | 102 ± 1.3 |
| O=C(c1ccc(/C=C/c2n[nH]c3ccccc23)cc1)N1CCNCC1 [KW 2449] | 37.58 ± 0.36 |
| O=C(c1ccc(F)cc1)C1CCN(CCn2c(=O)[nH]c3ccccc3c2=O)CC1 [Ketanserin (Vulketan Gel)] | 88.1 ± 1.1 |
| O=C(c1ccccc1)c1ccc2n1CCC2C(=O)O (configuration not stated) [Ketorolac] | 94.8 ± 7.1 |
| CCCCCCCCCCCCCCCC(=O)OC[C@H](O)[C@H]1OC(=O)C(O)=C1O [L-Ascorbyl 6-palmitate] | 111 ± 2.4 |
| Cc1[nH]c2ccccc2c1CCNCc1ccc(/C=C/C(=O)NO)cc1 [LBH-589 (Panobinostat)] | 11.9 ± 0.59 |
| Cc1c(C(=O)Nc2ccc(N3C[C@@H](C)O[C@@H](C)C3)nc2)cccc1-c1ccc(OC(F)(F)F)cc1 [LDE225] | 81.9 ± 9.2 |
| CS(=O)(=O)CCNCc1ccc(-c2ccc3ncnc(Nc4ccc(OCc5cccc(F)c5)c(Cl)c4)c3c2)o1 [Lapatinib Ditosylate] | 82.9 ± 3.4 |
| Nc1cccc2c1CN(C1CCC(=O)NC1=O)C2=O (configuration not stated) [Lenalidomide] | 98.472 ± 0.068 |
| N#Cc1ccc(C(c2ccc(C#N)cc2)n2cncn2)cc1 [Letrozole] | 111 ± 1.2 |
| CC(=O)NC[C@H]1CN(c2ccc(N3CCOCC3)c(F)c2)C(=O)O1 [Linezolid] | 101.1 ± 0.19 |
| CN(C)C(=O)C(CCN1CCC(O)(c2ccc(Cl)cc2)CC1)(c1ccccc1)c1ccccc1 [Loperamide HCl] | 82.5 ± 1.3 |
| O=c1cc(-c2ccc(O)c(O)c2)oc2cc(O)cc(O)c12 [Luteolin (Luteolol)] | 101.9 ± 0.18 |
| Cn1cc(/C=C/C(=O)c2cccc(F)c2)cc1/C=C/C(=O)NO [MC1568] | 102.6 ± 0.25 |
| CC(C)C[C@@H](C=O)NC(=O)[C@H](CC(C)C)NC(=O)[C@H](CC(C)C)NC(=O)OCc1ccccc1 [MG-132] | 1.52 ± 0.059 |
| Nc1ccccc1NC(=O)c1ccc(CNc2nccc(-c3cccnc3)n2)cc1 [MGCD0103 (Mocetinostat)] | 34.1 ± 1.1 |
| O=C(CN1C(=O)C2(CCCC2)NC[C@H]1c1cc(F)cc(F)c1)Nc1ccc2c(c1)C[C@@]1(C2)C(=O)Nc2ncccc21 [MK 3207 hydrochloride] | 104 ± 2.5 |
| O=C(O)CC[C@H]1CC[C@@](c2cc(F)ccc2F)(S(=O)(=O)c2ccc(Cl)cc2)CC1 [MK-0752] | 97 ± 5 |

| SMILES | relative viability [%] |
| --- | --- |
| NC1(c2ccc(-c3nc4ccn5c(=O)[nH]nc5c4cc3-c3ccccc3)cc2)CCC1 [MK-2206] | 59 ± 3.6 |
| S=C(NCc1ccc2c(c1)OCO2)N1CCN(c2ncnc3c2oc2ccccc23)CC1 [MP-470] | 116.2 ± 0.7 |
| Nc1ccccc1NC(=O)c1ccc(CNC(=O)OCc2cccnc2)cc1 [MS-275] | 64.11 ± 0.47 |
| COC(=O)C1=C(C)NC(C)=C(C(=O)OCCN2CCN(C(c3ccccc3)c3ccccc3)CC2)C1c1cccc([N+](=O)[O-])c1 (configuration not stated) [Manidipine HCl (CV-4093)] | 94.55 ± 0.56 |
| COC(=O)C1=C(C)NC(C)=C(C(=O)OCCN2CCN(C(c3ccccc3)c3ccccc3)CC2)C1c1cccc([N+](=O)[O-])c1 (configuration not stated) [Manidipine] | 96.95 ± 0.61 |
| CNCCCC12CCC(c3ccccc31)c1ccccc12 [Maprotiline HCl] | 82.2 ± 3.8 |
| Cc1nnc(C(C)C)n1[C@H]1C[C@H]2CC[C@@H](C1)N2CC[C@H](NC(=O)C1CCC(F)(F)CC1)c1ccccc1 [Maraviroc (Selzentry)] | 107 ± 1.8 |
| Cc1ccc(NC(=O)c2ccc(CN3CCN(C)CC3)cc2)cc1Nc1nc(-c2cccnc2)cs1 [Masitinib (AB1010)] | 53.4 ± 14 |
| Cc1[nH]c(=O)c(C#N)cc1-c1ccncc1 [Milrinone (Primacor)] | 107 ± 1.4 |
| O=C1c2c(O)ccc(O)c2C(=O)c2c(NCCNCCO)ccc(NCCNCCO)c21 [Mitoxantrone] | 2.13 ± 0.16 |
| NC(=O)c1ncn([C@@H]2O[C@H](CO)[C@@H](O)[C@H]2O)c1O [Mizoribine] | 92.9 ± 2.9 |
| N=C(N)NC(=N)N1CCOCC1 [Moroxydine] | 99.87 ± 0.55 |
| CC1(C)CNc2cc(NC(=O)c3cccnc3NCc3ccncc3)ccc21 [Motesanib DiPhosphate] | 107 ± 2 |
| FC(F)(F)c1ccc(/C=C/c2nc(COc3ccc(CCCCn4ccnn4)cc3)co2)cc1 [Mubritinib (TAK 165)] | 110.2 ± 1.1 |
| CC(C)(C)c1[nH]cnc1/C=c1\[nH]c(=O)/c(=C/c2ccccc2)[nH]c1=O [NPI-2358] | 41.3 ± 2.3 |
| CC(C)(Cc1ccc2ccccc2c1)NC[C@@H](O)COc1cccc(Cl)c1C#N [NPS-2143] | 1 ± 0.14 |
| CCNC(=O)c1noc(-c2cc(C(C)C)c(O)cc2O)c1-c1ccc(CN2CCOCC2)cc1 [NVP-AUY922] | 21.6 ± 1.3 |
| CCNC(=O)c1cc2c(-c3cc(OCCN4CCCC4)c(Cl)cc3Cl)nc(N)nc2s1 [NVP-BEP800] | 19.3 ± 1.1 |
| Fc1cc(-c2cccc3ncc(-c4cnn(C5CCNCC5)c4)nc23)cc(F)c1CN1CCOCC1 [NVP-BSK805 dihydrochloride] | 4.33 ± 1.8 |
